Tests used:
Format in all cases: in vivo
Viola tricolor = assay: Post-emergence herbicidal action against VIOTR
Procedure, shortened: (§1)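 Weeds sown in sandy loam, greenhouse-grown 2 to 3 weeks and treated at the one-leaf stage. Compounds formulated as WP or EC were sprayed onto green parts as aqueous suspension/emulsion with 0.5% additive at 600 l/ha water. Activity rated visually after about 3 weeks versus untreated controls (100% = plants dead, 0% = like control).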

Setaria viridis = assay: Post-emergence herbicidal action against SETVI; details: visual rating about 3 weeks after treatment
Procedure, shortened: as §1

Stellaria media = assay: Post-emergence herbicidal action against STEME
Procedure, shortened: as §1

Alopecurus myosuroides = assay: Post-emergence herbicidal action against ALOMY; details: visual rating about 3 weeks after treatment
Procedure, shortened: as §1

Avena fatua = assay: Post-emergence herbicidal action against AVEFA; details: visual rating about 3 weeks after treatment
Procedure, shortened: as §1

Pharbitis purpurea = assay: Post-emergence herbicidal action against PHBPU
Procedure, shortened: as §1

Echinochloa crus-galli = assay: Post-emergence herbicidal action against ECHCG; details: visual rating about 3 weeks after treatment
Procedure, shortened: as §1

Veronica persica = assay: Post-emergence herbicidal action against VERPE
Procedure, shortened: as §1

Hordeum murinum = assay: Post-emergence herbicidal action against HORMU
Procedure, shortened: as §1

DIGSA = assay: Post-emergence herbicidal action against DIGSA; details: visual rating about 3 weeks after treatment
Procedure, shortened: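 Greenhouse-grown plants sprayed at one-leaf stage (2–3 weeks after sowing) with WP or EC formulations as aqueous suspension/emulsion plus 0.5% additive, 600 l/ha water. Activity rated visually about 3 weeks later versus untreated controls, 100% = plants dead, 0% = like controls.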

Matricaria inodora = assay: Post-emergence herbicidal action against MATIN
Procedure, shortened: as §1

Polygonum convolvulus = assay: Post-emergence herbicidal action against POLCO
Procedure, shortened: as §1

Amaranthus retroflexus = assay: Post-emergence herbicidal action against AMARE
Procedure, shortened: as §1

Lolium rigidum = assay: Post-emergence herbicidal action against LOLRI; details: visual rating about 3 weeks after treatment
Procedure, shortened: as §1

Abutilon theophrasti = assay: Post-emergence herbicidal action against ABUTH; details: visual rating about 3 weeks after treatment
Procedure, shortened: as §1

[1] = 80 g a.i./ha, visual rating about 3 weeks after treatment

C=CC1(C(=O)NC2C=CC(C(=O)OCCSC)C2)CC(c2cc(F)cc(F)c2)=NO1 (stereo not drawn) [Example I-18]
Herbicidal action against [%] VIOTR (Viola tricolor; 20 g a.i./ha): 90%
Herbicidal action against [%] VIOTR (Viola tricolor; 80 g a.i./ha): 80%
Herbicidal action against [%] SETVI (Setaria viridis; 20 g a.i./ha): 80%
Herbicidal action against [%] SETVI (Setaria viridis; 80 g a.i./ha): 80%
Herbicidal action against [%] STEME (Stellaria media; 20 g a.i./ha): 90%
Herbicidal action against [%] STEME (Stellaria media; 80 g a.i./ha): 90%
Herbicidal action against [%] ALOMY (Alopecurus myosuroides; 20 g a.i./ha): 100%
Herbicidal action against [%] ALOMY (Alopecurus myosuroides; 80 g a.i./ha): 100%
Herbicidal action against [%] AVEFA (Avena fatua; 20 g a.i./ha): 90%
Herbicidal action against [%] AVEFA (Avena fatua; 80 g a.i./ha): 100%
Herbicidal action against [%] PHBPU (Pharbitis purpurea; 20 g a.i./ha): 80%
Herbicidal action against [%] PHBPU (Pharbitis purpurea; 80 g a.i./ha): 80%
Herbicidal action against [%] ECHCG (Echinochloa crus-galli; 20 g a.i./ha): 90%
Herbicidal action against [%] ECHCG (Echinochloa crus-galli; 80 g a.i./ha): 90%
Herbicidal action against [%] VERPE (Veronica persica; 20 g a.i./ha): 90%
Herbicidal action against [%] VERPE (Veronica persica; 80 g a.i./ha): 90%
Herbicidal action against [%] HORMU (Hordeum murinum; 20 g a.i./ha): 100%
Herbicidal action against [%] HORMU (Hordeum murinum; 80 g a.i./ha): 100%
Herbicidal action against [%] DIGSA (DIGSA; 20 g a.i./ha): 90%
Herbicidal action against [%] DIGSA (DIGSA; 80 g a.i./ha): 90%
Herbicidal action against [%] MATIN (Matricaria inodora; 20 g a.i./ha): 90%
Herbicidal action against [%] MATIN (Matricaria inodora; [1]): 90%
Herbicidal action against [%] POLCO (Polygonum convolvulus; 20 g a.i./ha): 90%
Herbicidal action against [%] POLCO (Polygonum convolvulus; 80 g a.i./ha): 90%
Herbicidal action against [%] AMARE (Amaranthus retroflexus; 20 g a.i./ha): 90%
Herbicidal action against [%] AMARE (Amaranthus retroflexus; [1]): 90%
Herbicidal action against [%] LOLRI (Lolium rigidum; 20 g a.i./ha): 90%
Herbicidal action against [%] LOLRI (Lolium rigidum; 80 g a.i./ha): 90%
Herbicidal action against [%] ABUTH (Abutilon theophrasti; 20 g a.i./ha): 90%
Herbicidal action against [%] ABUTH (Abutilon theophrasti; 80 g a.i./ha): 90%

CSCCOC(=O)C1C=CC(NC(=O)C2(C(F)(F)F)CC(c3cc(F)cc(C#N)c3)=NO2)C1 (mixture of isomers) [Example I-38]
Herbicidal action against [%] VIOTR (Viola tricolor; 20 g a.i./ha): 100%
Herbicidal action against [%] VIOTR (Viola tricolor; 80 g a.i./ha): 80%
Herbicidal action against [%] SETVI (Setaria viridis; 20 g a.i./ha): 90%
Herbicidal action against [%] SETVI (Setaria viridis; 80 g a.i./ha): 90%
Herbicidal action against [%] STEME (Stellaria media; 20 g a.i./ha): 100%
Herbicidal action against [%] STEME (Stellaria media; 80 g a.i./ha): 100%
Herbicidal action against [%] ALOMY (Alopecurus myosuroides; 20 g a.i./ha): 80%
Herbicidal action against [%] ALOMY (Alopecurus myosuroides; 80 g a.i./ha): 90%
Herbicidal action against [%] AVEFA (Avena fatua; 20 g a.i./ha): 90%
Herbicidal action against [%] AVEFA (Avena fatua; 80 g a.i./ha): 90%
Herbicidal action against [%] PHBPU (Pharbitis purpurea; 80 g a.i./ha): 90%
Herbicidal action against [%] ECHCG (Echinochloa crus-galli; 20 g a.i./ha): 90%
Herbicidal action against [%] ECHCG (Echinochloa crus-galli; 80 g a.i./ha): 90%
Herbicidal action against [%] VERPE (Veronica persica; 20 g a.i./ha): 90%
Herbicidal action against [%] VERPE (Veronica persica; 80 g a.i./ha): 90%
Herbicidal action against [%] HORMU (Hordeum murinum; 20 g a.i./ha): 80%
Herbicidal action against [%] HORMU (Hordeum murinum; 80 g a.i./ha): 80%
Herbicidal action against [%] DIGSA (DIGSA; 20 g a.i./ha): 90%
Herbicidal action against [%] DIGSA (DIGSA; 80 g a.i./ha): 90%
Herbicidal action against [%] MATIN (Matricaria inodora; [1]): 80%
Herbicidal action against [%] POLCO (Polygonum convolvulus; 20 g a.i./ha): 90%
Herbicidal action against [%] POLCO (Polygonum convolvulus; 80 g a.i./ha): 90%
Herbicidal action against [%] AMARE (Amaranthus retroflexus; 20 g a.i./ha): 80%
Herbicidal action against [%] AMARE (Amaranthus retroflexus; [1]): 80%
Herbicidal action against [%] LOLRI (Lolium rigidum; 20 g a.i./ha): 90%
Herbicidal action against [%] LOLRI (Lolium rigidum; 80 g a.i./ha): 90%
Herbicidal action against [%] ABUTH (Abutilon theophrasti; 20 g a.i./ha): 90%
Herbicidal action against [%] ABUTH (Abutilon theophrasti; 80 g a.i./ha): 90%

CSCCOC(=O)C1C=CC(NC(=O)C2(C(F)(F)F)CC(c3cccc(C#N)c3)=NO2)C1 (mixture of isomers) [Example I-44]
Herbicidal action against [%] VIOTR (Viola tricolor; 80 g a.i./ha): 90%
Herbicidal action against [%] SETVI (Setaria viridis; 20 g a.i./ha): 80%
Herbicidal action against [%] SETVI (Setaria viridis; 80 g a.i./ha): 90%
Herbicidal action against [%] STEME (Stellaria media; 80 g a.i./ha): 90%
Herbicidal action against [%] ALOMY (Alopecurus myosuroides; 20 g a.i./ha): 90%
Herbicidal action against [%] ALOMY (Alopecurus myosuroides; 80 g a.i./ha): 90%
Herbicidal action against [%] AVEFA (Avena fatua; 20 g a.i./ha): 80%
Herbicidal action against [%] AVEFA (Avena fatua; 80 g a.i./ha): 90%
Herbicidal action against [%] PHBPU (Pharbitis purpurea; 80 g a.i./ha): 80%
Herbicidal action against [%] ECHCG (Echinochloa crus-galli; 20 g a.i./ha): 80%
Herbicidal action against [%] ECHCG (Echinochloa crus-galli; 80 g a.i./ha): 80%
Herbicidal action against [%] VERPE (Veronica persica; 20 g a.i./ha): 90%
Herbicidal action against [%] VERPE (Veronica persica; 80 g a.i./ha): 90%
Herbicidal action against [%] HORMU (Hordeum murinum; 20 g a.i./ha): 80%
Herbicidal action against [%] HORMU (Hordeum murinum; 80 g a.i./ha): 80%
Herbicidal action against [%] DIGSA (DIGSA; 20 g a.i./ha): 90%
Herbicidal action against [%] DIGSA (DIGSA; 80 g a.i./ha): 90%
Herbicidal action against [%] MATIN (Matricaria inodora; [1]): 80%
Herbicidal action against [%] POLCO (Polygonum convolvulus; 20 g a.i./ha): 80%
Herbicidal action against [%] POLCO (Polygonum convolvulus; 80 g a.i./ha): 90%
Herbicidal action against [%] AMARE (Amaranthus retroflexus; 20 g a.i./ha): 80%
Herbicidal action against [%] AMARE (Amaranthus retroflexus; [1]): 80%
Herbicidal action against [%] LOLRI (Lolium rigidum; 20 g a.i./ha): 90%
Herbicidal action against [%] LOLRI (Lolium rigidum; 80 g a.i./ha): 90%
Herbicidal action against [%] ABUTH (Abutilon theophrasti; 80 g a.i./ha): 80%

CSCCOC(=O)C1C=CC(NC(=O)C2(CCl)CC(c3cc(F)cc(F)c3)=NO2)C1 (stereo not drawn) [Example I-31]
Herbicidal action against [%] VIOTR (Viola tricolor; 20 g a.i./ha): 80%
Herbicidal action against [%] VIOTR (Viola tricolor; 80 g a.i./ha): 80%
Herbicidal action against [%] SETVI (Setaria viridis; 20 g a.i./ha): 80%
Herbicidal action against [%] SETVI (Setaria viridis; 80 g a.i./ha): 90%
Herbicidal action against [%] STEME (Stellaria media; 20 g a.i./ha): 80%
Herbicidal action against [%] STEME (Stellaria media; 80 g a.i./ha): 80%
Herbicidal action against [%] ALOMY (Alopecurus myosuroides; 20 g a.i./ha): 90%
Herbicidal action against [%] ALOMY (Alopecurus myosuroides; 80 g a.i./ha): 90%
Herbicidal action against [%] AVEFA (Avena fatua; 20 g a.i./ha): 90%
Herbicidal action against [%] AVEFA (Avena fatua; 80 g a.i./ha): 90%
Herbicidal action against [%] PHBPU (Pharbitis purpurea; 80 g a.i./ha): 90%
Herbicidal action against [%] ECHCG (Echinochloa crus-galli; 20 g a.i./ha): 90%
Herbicidal action against [%] ECHCG (Echinochloa crus-galli; 80 g a.i./ha): 90%
Herbicidal action against [%] VERPE (Veronica persica; 20 g a.i./ha): 80%
Herbicidal action against [%] VERPE (Veronica persica; 80 g a.i./ha): 80%
Herbicidal action against [%] HORMU (Hordeum murinum; 20 g a.i./ha): 90%
Herbicidal action against [%] HORMU (Hordeum murinum; 80 g a.i./ha): 90%
Herbicidal action against [%] DIGSA (DIGSA; 20 g a.i./ha): 90%
Herbicidal action against [%] DIGSA (DIGSA; 80 g a.i./ha): 90%
Herbicidal action against [%] MATIN (Matricaria inodora; 20 g a.i./ha): 80%
Herbicidal action against [%] MATIN (Matricaria inodora; [1]): 80%
Herbicidal action against [%] POLCO (Polygonum convolvulus; 20 g a.i./ha): 90%
Herbicidal action against [%] POLCO (Polygonum convolvulus; 80 g a.i./ha): 90%
Herbicidal action against [%] AMARE (Amaranthus retroflexus; 20 g a.i./ha): 80%
Herbicidal action against [%] AMARE (Amaranthus retroflexus; [1]): 80%
Herbicidal action against [%] LOLRI (Lolium rigidum; 20 g a.i./ha): 90%
Herbicidal action against [%] LOLRI (Lolium rigidum; 80 g a.i./ha): 90%
Herbicidal action against [%] ABUTH (Abutilon theophrasti; 80 g a.i./ha): 80%

Source: patent publication US12185723B2, “Herbicidally active 3-phenylisoxazoline-5-carboxamides of s-containing cyclopentenylcarboxylic esters” (Bayer Aktiengesellschaft, priority 2019, dated 2025)
